In patent US10494363B2, “Non-steroidal glucocorticoid receptor modulators for local drug delivery” (LEO PHARMA A/S, priority 2015, dated 2019):
pEC50, pIC50: −log10 of the molar value.

Legend:
[1] = target: T1, glucocorticoid receptor (GR), recombinant full-length receptor protein (Homo sapiens, UniProt P04150); assay: Glucocorticoid receptor binding assay (fluorescence polarization kit); conditions: 4 nM receptor, 2.5 nM Fluormone GS1 tracer, 2h room temperature, read-out: GR binding ABS IC50
T1 construct: 4 nM recombinant, full-length receptor protein was incubated with increasing concentrations of GR ligand; purchased Life Technologies A-15897
T1 sequence (P04150 1-777): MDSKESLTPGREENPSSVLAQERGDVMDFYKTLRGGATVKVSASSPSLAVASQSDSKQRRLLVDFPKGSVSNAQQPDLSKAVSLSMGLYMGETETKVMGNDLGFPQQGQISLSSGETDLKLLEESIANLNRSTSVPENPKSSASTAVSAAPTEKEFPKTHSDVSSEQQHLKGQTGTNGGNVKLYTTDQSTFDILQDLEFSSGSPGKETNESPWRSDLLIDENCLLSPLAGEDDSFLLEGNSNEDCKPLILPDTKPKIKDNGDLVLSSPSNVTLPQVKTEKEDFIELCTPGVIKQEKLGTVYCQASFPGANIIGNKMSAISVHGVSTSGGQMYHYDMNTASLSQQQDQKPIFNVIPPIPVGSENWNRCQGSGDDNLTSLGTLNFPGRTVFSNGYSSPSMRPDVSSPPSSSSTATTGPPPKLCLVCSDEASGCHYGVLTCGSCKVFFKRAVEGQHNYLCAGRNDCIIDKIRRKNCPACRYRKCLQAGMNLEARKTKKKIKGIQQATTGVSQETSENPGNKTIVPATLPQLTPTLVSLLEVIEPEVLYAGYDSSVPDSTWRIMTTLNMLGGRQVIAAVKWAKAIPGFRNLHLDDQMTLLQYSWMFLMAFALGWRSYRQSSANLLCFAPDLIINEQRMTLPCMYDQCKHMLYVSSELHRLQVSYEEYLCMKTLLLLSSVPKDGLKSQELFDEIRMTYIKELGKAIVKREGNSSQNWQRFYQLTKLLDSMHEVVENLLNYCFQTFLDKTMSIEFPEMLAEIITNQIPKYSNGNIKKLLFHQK
Protocol: Test compounds were diluted in DMSO over seven orders of magnitude, further diluted in assay buffer and distributed into 384-well plates. The sensitivity limit of this assay was 2-4 nM.
Data were processed by sigmoidal curve fitting.
Absolute (Abs) IC50 and Emax were determined from the curve fits.

[2] = tested on: TNF alpha release from human PBMCs; assay: Inhibition of TNF alpha release from human PBMCs; type: cell-based; conditions: LPS 1 μg/ml, 18 hours, AlphaLISA
Protocol: PBMC were isolated from fresh buffy coats by density centrifugation using lymphoprep (Medinor AB, cat no 1019818) tubes. Isolated PBMCs were washed in assay medium (RPMI1640 with 25 mM HEPES, 1% pen/strep, 200 mM L glutamine and 10% Foetal calf serum). Surplus PBMCs were frozen in medium containing extra 10% foetal calf serum and 5% DMSO. On the assay day, fresh cells or cryopreserved cells after thawing were washed in serum free medium (RPMI1640 with 25 mM HEPES, 1% pen/strep, 200 mM L glutamine and 0.5% human serum albumin) and counted, in order to determine the fraction of living cells (generally >95%).
Test compounds were diluted in DMSO over seven orders of magnitude, further diluted in serum-free medium and distributed into wells of 384 well tissue culture plates. LPS was added to a final concentration of 1 μg/ml to the cells. Immediately thereafter titrated test compounds were added and incubated for 18 hours at 37° C.
The level of TNF-a in the culture supernatant was quantitated by AlphaLISA (Perkin Elmer). 2-(3,5-dichloro-4-pyridinyl)-1-(7-methoxyspiro[1,3-benzodioxole-2,1′-cyclopentan]-4-yl)-ethanone (CAS 185406-34-2) at 100×IC50 was used to define the assay window.
Data were processed by sigmoidal curve fitting. EC50 and Emax were determined from the curve fits.

[3] = Human liver microsomes (HLM) assay; type: in vitro ADME; conditions: hepatic extraction ratio; 0.5 μM compound, 0.5 mg/mL microsomes, NADPH, 37° C.
Protocol: Incubations of test compounds in DMSO, diluted with phosphate buffer, pH 7.4, at 0.5 μM were carried out with human liver microsomes (0.5 mg/mL). The percentage of organic solvent in the incubations was 1%. The human liver microsomal suspension in phosphate buffer was mixed with NADPH (1 mM) and preheated to 37° C. before test compound was added. Aliquots were taken at 0, 5, 10, 20 and 30 minutes, and reactions were terminated by addition of methanol containing analytical internal standard (IS).
The results were expressed as apparent clearance (Clapp) (mL/min/kg) and hepatic extraction ratio (Eh) (%) calculated from the rate constant (k) (min^−1) of test compound depletion.

| SMILES | pIC50 [1] | pEC50 ([2]; PBMC) | HLM assay Eh (%) [3] | pEC50 [2] |
| --- | --- | --- | --- | --- |
| C[C@H](NC(=O)c1cocn1)[C@H](Oc1ccc(C(=O)N[C@H]2CCCN(C(=O)[C@H]3COC(=O)C3)C2)nc1)c1ccc(C2CC2)cc1 [Compound 19, N-[(1S,2R)-2-(4-cyclopropylphenyl)-1-methyl-2-[[6-[[(3S)-1-[(3R)-5-oxotetrahydrofuran-3-carbonyl]-3-piperidyl]carbamoyl]-3-pyridyl]oxy]ethyl]oxazole-4-carboxamide] | > 7.00 | > 7.00 | * (extraction ratio (Eh)>90%) |  |
| C[C@H](NC(=O)c1ccno1)[C@H](Oc1ccc(C(=O)O[C@H]2CCCN(C(=O)[C@H]3COC(=O)C3)C2)cc1)c1ccc(C2CC2)cc1 [Compound 54, [(3S)-1-[(3R)-5-oxotetrahydrofuran-3-carbonyl]-3-piperidyl] 4-[(1R,2S)-1-(4-cyclopropylphenyl)-2-(isoxazole-5-carbonylamino)propoxy]benzoate] | > 7.00 | > 7.00 | * (extraction ratio (Eh)>90%) |  |
| Cc1nonc1C(=O)N[C@@H](C)[C@H](Oc1ccc(C(=O)O[C@H]2CCCN(C(=O)[C@H]3COC(=O)C3)C2)cc1)c1ccc(C2CC2)cc1 [Compound 28, [(3S)-1-[(3R)-5-oxotetrahydrofuran-3-carbonyl]-3-piperidyl] 4-[(1R,2S)-1-(4-cyclopropylphenyl)-2-[(4-methyl-1,2,5-oxadiazole-3-carbonyl)amino]propoxy]benzoate] | > 7.00 | > 7.00 | * (extraction ratio (Eh)>90%) |  |
| C[C@H](NC(=O)c1cnnn1C)[C@H](Oc1ccc(C(=O)O[C@H]2CCCN(C(=O)[C@H]3COC(=O)C3)C2)cc1)c1ccc(C2CC2)cc1 [Compound 38, [(3S)-1-[(3R)-5-oxotetrahydrofuran-3-carbonyl]-3-piperidyl] 4-[(1R,2S)-1-(4-cyclopropylphenyl)-2-[(3-methyltriazole-4-carbonyl)amino]propoxy]benzoate] | > 7.00 |  | * (extraction ratio (Eh)>90%) | 6.52 to 7.00 |
| C[C@H](NC(=O)c1ccno1)[C@H](Oc1ccc(C(=O)N[C@H]2CCCN(C(=O)[C@H]3COC(=O)C3)C2)nc1)c1ccc(C2CC2)cc1 [Compound 12, N-[(1S,2R)-2-(4-cyclopropylphenyl)-1-methyl-2-[[6-[[(3S)-1-[(3R)-5-oxotetrahydrofuran-3-carbonyl]-3-piperidyl]carbamoyl]-3-pyridyl]oxy]ethyl]isoxazole-5-carboxamide] | > 7.00 | > 7.00 | * (extraction ratio (Eh)>90%) |  |
| C[C@H](NC(=O)C(C)(C)O)[C@H](Oc1ccc(C(=O)N[C@H]2CCCN(C(=O)[C@H]3COC(=O)C3)C2)nc1)c1ccc(C2CC2)cc1 [Compound 15, 5-[(1R,2S)-1-(4-cyclopropylphenyl)-2-[(2-hydroxy-2-methyl-propanoyl)amino]propoxy]-N-[(3S)-1-[(3R)-5-oxotetrahydrofuran-3-carbonyl]-3-piperidyl]pyridine-2-carboxamide] | < 6.52 | > 7.00 | ** (50%<extraction ratio (Eh)<90%) |  |
| CC[C@@H](O)C(=O)N[C@@H](C)[C@H](Oc1ccc(C(=O)N[C@H]2CCCN(C(=O)[C@H]3COC(=O)C3)C2)nc1)c1ccc(C2CC2)cc1 [Compound 13, 5-[(1R,2S)-1-(4-cyclopropylphenyl)-2-[[(2R)-2-hydroxybutanoyl]amino]propoxy]-N-[(3S)-1-[(3R)-5-oxotetrahydrofuran-3-carbonyl]-3-piperidyl]pyridine-2-carboxamide] | 6.52 to 7.00 | > 7.00 | * (extraction ratio (Eh)>90%) |  |
| C[C@H](NC(=O)c1ccsn1)[C@H](Oc1ccc(C(=O)O[C@H]2CCCN(C(=O)[C@H]3COC(=O)C3)C2)cc1)c1ccc(C2CC2)cc1 [Compound 44, [(3S)-1-[(3R)-5-oxotetrahydrofuran-3-carbonyl]-3-piperidyl] 4-[(1R,2S)-1-(4-cyclopropylphenyl)-2-(isothiazole-3-carbonylamino)propoxy]benzoate] | > 7.00 | > 7.00 | * (extraction ratio (Eh)>90%) |  |
| COCC(=O)N[C@@H](C)[C@H](Oc1ccc(C(=O)O[C@H]2CCCN(C(=O)[C@H]3COC(=O)C3)C2)cc1)c1ccc(C2CC2)cc1 [Compound 34, [(3S)-1-[(3R)-5-oxotetrahydrofuran-3-carbonyl]-3-piperidyl] 4-[(1R,2S)-1-(4-cyclopropylphenyl)-2-[(2-methoxyacetyl)amino]propoxy]benzoate] | > 7.00 | > 7.00 | * (extraction ratio (Eh)>90%) |  |
| CC[C@H](O)C(=O)N[C@@H](C)[C@H](Oc1ccc(C(=O)N[C@H]2CCCN(C(=O)[C@H]3COC(=O)C3)C2)nc1)c1ccc(C2CC2)cc1 [Compound 10, 5-[(1R,2S)-1-(4-cyclopropylphenyl)-2-[[(2S)-2-hydroxybutanoyl]amino]propoxy]-N-[(3S)-1-[(3R)-5-oxotetrahydrofuran-3-carbonyl]-3-piperidyl]pyridine-2-carboxamide] | 6.52 to 7.00 | > 7.00 | * (extraction ratio (Eh)>90%) |  |
| C[C@H](NC(=O)c1ncco1)[C@H](Oc1ccc(C(=O)O[C@H]2CCCN(C(=O)[C@H]3COC(=O)C3)C2)cc1)c1ccc(C2CC2)cc1 [Compound 49, [(3S)-1-[(3R)-5-oxotetrahydrofuran-3-carbonyl]-3-piperidyl] 4-[(1R,2S)-1-(4-cyclopropylphenyl)-2-(oxazole-2-carbonylamino)propoxy]benzoate] | > 7.00 | > 7.00 | * (extraction ratio (Eh)>90%) |  |
| C[C@H](NC(=O)[C@@H](C)O)[C@H](Oc1ccc(C(=O)N[C@H]2CCCN(C(=O)[C@H]3COC(=O)C3)C2)nc1)c1ccc(C2CC2)cc1 [Compound 11, 5-[(1R,2S)-1-(4-cyclopropylphenyl)-2-[[(2R)-2-hydroxypropanoyl]amino]propoxy]-N-[(3S)-1-[(3R)-5-oxotetrahydrofuran-3-carbonyl]-3-piperidyl]pyridine-2-carboxamide] | < 6.52 | > 7.00 | * (extraction ratio (Eh)>90%) |  |
| Cc1ncc(C(=O)N[C@@H](C)[C@H](Oc2ccc(C(=O)O[C@H]3CCCN(C(=O)[C@H]4COC(=O)C4)C3)cc2)c2ccc(C3CC3)cc2)s1 [Compound 36, [(3S)-1-[(3R)-5-oxotetrahydrofuran-3-carbonyl]-3-piperidyl] 4-[(1R,2S)-1-(4-cyclopropylphenyl)-2-[(2-methylthiazole-5-carbonyl)amino]propoxy]benzoate] | > 7.00 | > 7.00 | * (extraction ratio (Eh)>90%) |  |
| C[C@H](NC(=O)c1cnsn1)[C@H](Oc1ccc(C(=O)O[C@H]2CCCN(C(=O)[C@H]3COC(=O)C3)C2)cc1)c1ccc(C2CC2)cc1 [Compound 25, [(3S)-1-[(3R)-5-oxotetrahydrofuran-3-carbonyl]-3-piperidyl] 4-[(1R,2S)-1-(4-cyclopropylphenyl)-2-(1,2,5-thiadiazole-3-carbonylamino)propoxy]benzoate] | > 7.00 | > 7.00 | * (extraction ratio (Eh)>90%) |  |
